{"source": "paper PMC4942781", "about": "“A sodium channel inhibitor ISTX-I with a novel structure provides a new hint at the evolutionary link between two toxin folds” (Scientific Reports, 2016)", "tested_on": "calcium channel", "assay": "Whole-cell patch clamp, Cav currents in DRG neurons", "assay_type": "cell-based, rat", "settings": "20 μM ISTX-I, 150 ms step depolarization to +10 mV from −90 mV, Ba2+ as charge carrier", "procedure": "Rat DRG cells were acutely dissociated from adult Sprague-Dawley rats[30]. Briefly, adult rats of either sex with body weights of approximately 200 g were killed by decapitation. The dorsal root ganglia were isolated quickly from the spinal cord and then transferred into Dulbecco’s modified Eagle’s medium (DMEM) containing trypsin I (0.15 mg/mL) and collagenase II (0.3 mg/mL) for incubation with an oscillation frequency of 200 rpm at 37 °C for 20 min. The trypsin inhibitor II-S (1 mg/mL) was added to terminate the reaction. […]\nDRG neurons with a large diameter (>[…]) and those with a relatively small diameter (<[…]) were chosen by measuring TTX-s and TTX-r currents, respectively. […] Potassium, calcium, and sodium currents were recorded in experimental cells using whole-cell patch-clamp recordings at room temperature, which were performed with an HEK EPC10 patch-clamp amplifier. […] Experimental data were acquired and analyzed using the programs patch master and Sigmaplot 9.0 (Sigma, USA). […]\nCurrents were recorded from experimental cells using whole-cell patch clamptechnique at room temperature (22–25 °C). […]\n25, MgCl2 12, HEPES 10, and D-glucose 10 (pH 7.2). Calcium channel currents were measured using Ba2+ as the charge carrier. […]", "note": "“Also recorded” adds a separate entry of the source. Bridge positions count the residues as written; N and C are the ends. Ends that are not written are not given here.", "data": [{"sequence": "LCSENGDCAADECCVDTVFEGDMVTRSCEKTTGNFTECPGLTPIA (disulfide 2-14, 8-28, 13-38) [ISTX-I]", "values": [{"measurement": "effect on calcium channels", "result": "no obvious effects; also recorded: No effects were detected"}]}]}
